# Measured values as given in publication PMC5430874 (Scientific Reports, 2017).
# Numbering of substitutions follows the chain as printed. Read-outs that look alike come from different tables or passages of the source.
# Experiments:
# GPR139 W241H^6×48 = molecular target: T1, GPR139 W241H^6×48 (Homo sapiens, UniProt Q6DWJ6, W241H); test: Fluo-4 Ca2+-assay, GPR139 mutant W241H; assay type: cell-based; parameters: key to Emax ± SEM: NE: no effect (loss of activity); settings: for EC50: W241H mutant
# T1 construct: mGluR5 signal peptide (N); expressed in transfected cells; host or cells: HEK293
# T1 sequence (Q6DWJ6 2-353 W241H limits assumed): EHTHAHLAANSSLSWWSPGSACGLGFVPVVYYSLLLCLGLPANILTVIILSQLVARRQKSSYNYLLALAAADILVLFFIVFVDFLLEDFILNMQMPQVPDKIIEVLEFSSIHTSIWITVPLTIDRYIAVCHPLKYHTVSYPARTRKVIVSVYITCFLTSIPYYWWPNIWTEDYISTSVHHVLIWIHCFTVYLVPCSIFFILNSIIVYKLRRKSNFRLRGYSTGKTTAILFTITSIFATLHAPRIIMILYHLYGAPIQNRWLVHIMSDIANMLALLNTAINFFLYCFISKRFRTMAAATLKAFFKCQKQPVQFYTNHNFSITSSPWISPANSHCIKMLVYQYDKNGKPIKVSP
# Description: (§1) To study the influence of specific amino acids in the predicted binding pocket on receptor function, the desired mutations were introduced into an N-terminally c-myc-tagged wild type human GPR139 (NM_001002911.3) in the pEGFP-N1 vector (BD Biosciences)[32], [33]. As previously described, these plasmids carry the signal peptide of mGluR5 to promote cell surface expression followed by a c-myc epitope to enable detection of total and surface expression by ELISA, followed by an engineered MluI and NotI site for easy insertion of the receptor of interest. Furthermore, the start-codon in the GPR139 sequence was deleted to ensure c-myc-tagging. Mutagenesis was designed in Serial Cloner 2.6 (© Franck Perez [SerialBasics]) and carried out by GenScript (USA). All mutated residues are illustrated in Supplementary Fig. 1b. An untagged GPR139(WT) in pEGFP-N1 was also generated to ensure that the c-myc-tag had no influence on GPR139(WT) function.
# (§2) All GPR139 mutants were transfected into HEK293 cells. The HEK293 cells were grown in Dulbecco’s modified Eagle’s medium (DMEM) (Gibco, 41965) supplemented with 10% dialyzed fetal bovine serum (Gibco, 26400, United States origin), 100 units/mL penicillin and 100 μg/mL streptomycin (Gibco, 15140). HEK293 cells were reverse transfected using Lipofectamine2000 (Invitrogen). More specifically two mixtures were made: 1) 10 ng DNA/well + 25 μL Opti-MEM/well and 2) […] Lipofectamine2000/well + 25 μL Opti-MEM/well. The two mixtures were mixed and 50 μL/well was added directly in black 96-well plates with flat clear bottoms for the Fluo-4 Ca^2+-assay (Corning, Falcon, 353219) or in white Opaque 96-well Microplate (PerkinElmer Life, 6005680) for ELISA. 100 μL containing 20,000 cells were added to each well and incubated 48 hours before assays. All plates were coated with poly-D-lysine.
# (§3) Compound 1a (1a) was kindly provided by H. Lundbeck A/S, Denmark. […] Both compounds were dissolved to 20 mM in DMSO (Sigma, D2650) and subsequently diluted in a HEPES buffer (HBSS (Gibco, 14025) supplemented with 20 mM HEPES + 1 mM MgCl2 + 1 mM CaCl2, pH = 7.4) to a final concentration of 0.5% DMSO in the Fluo-4 Ca^2+-assay. The DMSO level was kept constant for all concentrations of both compounds. DMSO was confirmed not to have any activity by itself at this concentration. L-Trp (T0254) and L -Phe (P2126) were obtained from Sigma-Aldrich and dissolved in buffer.
# (§4) The Ca^2+ measurements were preformed using the Fluo-4 NW Calcium Assay Kit (Invitrogen, Molecular Probes, F36206) as previously described. Briefly, the Fluo-4 dye loading solution was prepared according to the manufacturer’s instructions by dissolving it in HEPES-buffer supplemented with 2.5 mM probenecid. 50 μL dye loading solution was added to each well. Cells were incubated with the Fluo-4 dye for 60 min at 37 °C, then washed with 100 μL HEPES-buffer. 100 μL HEPES-buffer supplemented with 2.5 mM probenecid was then added to each well and incubated in 10 minutes at 37 °C before measurement. […] Intracellular calcium changes were recorded as indicated on either a NOVOstar (BMG Labtech) at 37 °C with an excitation filter of 485 nm and an emission filters 520 nm or a FlexStation 3 Benchtop Multi-Mode Microplate Reader (Molecular Devices) at 37 °C with an excitation wavelength of 485 nm and emission of 525 nm.
# (§5) All pharmacological data have been analyzed by using Prism 6.0 (GraphPad Software Inc., San Diego). Fitting of concentration response curves was performed by non-linear regression log(agonist) vs. response (four parameters). Pooled data are shown with standard error of the mean (S.E.M.) and data showing one representative are shown with standard deviation (S.D.). Changes in potency (pEC50) and span of myc-GPR139(WT) in comparison to untagged GPR139(WT) was statistically analyzed with a paired t-test and significance was accepted at p < 0.05. The ELISA data were normalized to surface expression of myc-GPR139(WT) (100%). […]
# GPR139 N271A^7×38 = molecular target: T2, GPR139 N271A^7×38 (Homo sapiens, UniProt Q6DWJ6, N271A); test: Fluo-4 Ca2+-assay, GPR139 mutant N271A; assay type: cell-based; parameters: key to Emax ± SEM: NE: no effect (loss of activity); settings: for EC50: N271A mutant (surface expression 53% of WT); for Change of in vitro potency: N271A mutant versus WT
# T2 construct: mGluR5 signal peptide (N); expressed in transfected cells; host or cells: HEK293
# T2 sequence (Q6DWJ6 2-353 N271A limits assumed): T1 sequence (Q6DWJ6 2-353 W241H limits assumed) with H240W, N270A
# Description: as §1, §2, §3, §4, §5
# GPR139 = settings: cited from earlier work; for activation of GPR139, concentration range: ref Isberg et al. and Liu et al.
smiles,measurement,setting,value
"N[C@@H](Cc1ccccc1)C(=O)O [L-Phe, phenylalanine]",EC50,GPR139 W241H^6×48,> 31.6 mM
same,Emax ± SEM,"GPR139 W241H^6×48; W241H, at 30 mM, normalized to buffer (0%) and 30 mM Phe (100%) on WT",NE^##
same,EC50,GPR139 N271A^7×38,> 31.6 mM
same,Emax at 30000 µM,"GPR139 N271A^7×38; N271A, at 30 mM, normalized to buffer (0%) and 30 mM Phe (100%) on WT",38 ± 9%
same,"activation of GPR139, concentration range",GPR139,hundred-micromolar range
C[C@@H](NC(=O)CNC(=O)c1cccc(Cl)c1)c1ccccc1 (racemic) [Compound 7c],Emax at 100 µM,GPR139 W241H^6×48,12 ± 3%
same,EC50,GPR139 W241H^6×48,> 0.1 mM
same,EC50,GPR139 N271A^7×38,> 0.1 mM
same,Change of in vitro potency,GPR139 N271A^7×38,Loss of function
same,Emax ± SEM,"GPR139 N271A^7×38; N271A, at 100 μM, normalized to buffer (0%) and 100 μM 7c (100%) on WT",NE**
same,agonist potency,GPR139; ref Dvorak et al.,ten-nanomolar range
"N[C@@H](Cc1c[nH]c2ccccc12)C(=O)O [L-Trp, tryptophan]",EC50,GPR139 W241H^6×48,> 10 mM
same,Emax ± SEM,"GPR139 W241H^6×48; W241H, at 10 mM, normalized to buffer (0%) and 10 mM Trp (100%) on WT",NE^#
same,EC50,GPR139 N271A^7×38,> 10 mM
same,Emax at 10000 µM,"GPR139 N271A^7×38; N271A, at 10 mM, normalized to buffer (0%) and 10 mM Trp (100%) on WT",31 ± 5%
same,"activation of GPR139, concentration range",GPR139,hundred-micromolar range
COc1cc(OC)cc(C(=O)NNC(=O)Nc2cccc3ccccc23)c1 [Compound 1a],EC50,GPR139 W241H^6×48,> 0.00794 mM
same,change of potency,GPR139 W241H^6×48; W241H mutant versus WT,markedly reduced potency
same,Emax at 8 µM,"GPR139 W241H^6×48; W241H, at 8 μM, normalized to buffer (0%) and 8 μM 1a (100%) on WT",27 ± 10%
same,EC50,GPR139 N271A^7×38,> 0.00794 mM
same,Change of in vitro potency,GPR139 N271A^7×38,Loss of function
same,Emax ± SEM,"GPR139 N271A^7×38; N271A, at 8 μM, normalized to buffer (0%) and 8 μM 1a (100%) on WT",NE*
same,agonist potency,GPR139; ref Shi et al.,ten-nanomolar range
